From publication PMC10174618, “Monoterpenoid aryl hydrocarbon receptor allosteric antagonists protect against ultraviolet skin damage in female mice” (Nature Communications, 2023)

What was measured:
Assay in all cases: biochemical
Parameters in all cases: KINOMEscan scanMAX active site-directed competition binding assay, percent of control, 468 kinases
Conditions in all cases: competition binding, percent of control
AAK1 = AAK1 (Homo sapiens, UniProt Q2M2I8)
Method in brief: (§1)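 Single-concentration screen (100 μM S-carvone) in a competition binding panel of 468 human kinases (KINOMEscan scanMAX); results given as percent of control, hit cutoff 35%.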

[1] = target: T1, ABL1(T315I)-nonphosphorylated (Homo sapiens, UniProt P00519, T315I)
T1 construct: nonphosphorylated
Method in brief: as §1

ACVR1 = ACVR1 (Homo sapiens, UniProt Q04771)
Method in brief: as §1

BMPR1A = BMPR1A (Homo sapiens, UniProt P36894)
Method in brief: as §1

CDC2L1 = target: T2, CDC2L1 (Homo sapiens, UniProt P21127)
T2 construct: gene CDK11B
T2 sequence (P21127 whole entry): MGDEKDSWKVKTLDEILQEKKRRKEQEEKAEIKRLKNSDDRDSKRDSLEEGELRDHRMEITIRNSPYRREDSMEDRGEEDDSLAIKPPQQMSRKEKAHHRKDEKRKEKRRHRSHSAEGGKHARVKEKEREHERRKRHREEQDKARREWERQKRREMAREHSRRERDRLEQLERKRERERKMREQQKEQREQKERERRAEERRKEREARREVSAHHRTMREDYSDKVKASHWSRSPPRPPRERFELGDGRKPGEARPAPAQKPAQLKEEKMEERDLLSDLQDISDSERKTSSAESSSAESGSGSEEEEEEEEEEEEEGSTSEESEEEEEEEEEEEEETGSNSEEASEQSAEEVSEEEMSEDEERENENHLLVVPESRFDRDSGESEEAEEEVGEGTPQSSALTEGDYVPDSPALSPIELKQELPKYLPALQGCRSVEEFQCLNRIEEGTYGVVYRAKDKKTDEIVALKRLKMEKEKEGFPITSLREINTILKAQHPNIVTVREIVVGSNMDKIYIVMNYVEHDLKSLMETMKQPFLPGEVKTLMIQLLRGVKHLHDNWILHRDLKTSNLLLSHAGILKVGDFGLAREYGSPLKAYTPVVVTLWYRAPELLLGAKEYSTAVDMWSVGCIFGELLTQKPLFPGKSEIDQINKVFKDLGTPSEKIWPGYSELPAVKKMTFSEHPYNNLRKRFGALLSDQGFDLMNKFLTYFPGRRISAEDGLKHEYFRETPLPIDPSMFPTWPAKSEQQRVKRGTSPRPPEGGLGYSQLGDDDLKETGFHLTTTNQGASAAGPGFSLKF
Method in brief: as §1

CDK4 = CDK4 (Homo sapiens, UniProt P11802)
Method in brief: as §1

CDK7 = CDK7 (Homo sapiens, UniProt P50613)
Chain of CDK7 (P50613 whole entry): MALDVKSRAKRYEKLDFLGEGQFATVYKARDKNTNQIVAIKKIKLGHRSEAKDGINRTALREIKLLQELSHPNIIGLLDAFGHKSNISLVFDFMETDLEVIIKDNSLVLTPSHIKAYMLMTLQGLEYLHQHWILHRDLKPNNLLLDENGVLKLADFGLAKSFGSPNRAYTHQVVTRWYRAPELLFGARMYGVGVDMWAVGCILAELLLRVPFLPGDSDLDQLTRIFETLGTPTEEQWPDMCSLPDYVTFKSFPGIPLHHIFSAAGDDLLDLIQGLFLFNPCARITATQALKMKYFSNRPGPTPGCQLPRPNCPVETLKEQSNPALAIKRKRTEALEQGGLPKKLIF
Method in brief: as §1

EGFR(T790M) = EGFR(T790M) (Homo sapiens, UniProt P00533, T790M)
Method in brief: as §1

EPHA2 = EPHA2 (Homo sapiens, UniProt P29317)
Method in brief: as §1

FRK = FRK (Homo sapiens, UniProt P42685)
Chain of FRK (P42685 whole entry): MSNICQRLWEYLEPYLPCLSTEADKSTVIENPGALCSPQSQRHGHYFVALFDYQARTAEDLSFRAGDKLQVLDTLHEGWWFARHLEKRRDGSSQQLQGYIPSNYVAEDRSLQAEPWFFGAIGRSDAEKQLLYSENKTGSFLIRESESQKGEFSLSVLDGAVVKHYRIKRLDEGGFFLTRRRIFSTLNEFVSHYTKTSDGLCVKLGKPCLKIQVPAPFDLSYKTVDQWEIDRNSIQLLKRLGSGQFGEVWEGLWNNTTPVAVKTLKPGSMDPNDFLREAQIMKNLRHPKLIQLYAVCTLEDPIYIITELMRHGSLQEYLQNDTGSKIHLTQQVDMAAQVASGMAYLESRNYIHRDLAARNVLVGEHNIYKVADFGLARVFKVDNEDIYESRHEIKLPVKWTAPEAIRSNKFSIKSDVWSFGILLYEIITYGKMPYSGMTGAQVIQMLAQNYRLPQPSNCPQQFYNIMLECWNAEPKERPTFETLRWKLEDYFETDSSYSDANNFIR
Method in brief: as §1

HASPIN = HASPIN (Homo sapiens, UniProt Q8TF76)
Method in brief: as §1

[2] = target: T3, JAK2(JH1domain-catalytic) (Homo sapiens, UniProt O60674)
T3 construct: JH1domain-catalytic
Method in brief: as §1

KIT(A829P) = KIT(A829P) (Homo sapiens, UniProt P10721, A829P)
Method in brief: as §1

LKB1 = target: T4, LKB1 (Homo sapiens, UniProt Q15831)
T4 construct: gene STK11
Method in brief: as §1

MARK1 = MARK1 (Homo sapiens, UniProt Q9P0L2)
Chain of MARK1 (Q9P0L2 whole entry): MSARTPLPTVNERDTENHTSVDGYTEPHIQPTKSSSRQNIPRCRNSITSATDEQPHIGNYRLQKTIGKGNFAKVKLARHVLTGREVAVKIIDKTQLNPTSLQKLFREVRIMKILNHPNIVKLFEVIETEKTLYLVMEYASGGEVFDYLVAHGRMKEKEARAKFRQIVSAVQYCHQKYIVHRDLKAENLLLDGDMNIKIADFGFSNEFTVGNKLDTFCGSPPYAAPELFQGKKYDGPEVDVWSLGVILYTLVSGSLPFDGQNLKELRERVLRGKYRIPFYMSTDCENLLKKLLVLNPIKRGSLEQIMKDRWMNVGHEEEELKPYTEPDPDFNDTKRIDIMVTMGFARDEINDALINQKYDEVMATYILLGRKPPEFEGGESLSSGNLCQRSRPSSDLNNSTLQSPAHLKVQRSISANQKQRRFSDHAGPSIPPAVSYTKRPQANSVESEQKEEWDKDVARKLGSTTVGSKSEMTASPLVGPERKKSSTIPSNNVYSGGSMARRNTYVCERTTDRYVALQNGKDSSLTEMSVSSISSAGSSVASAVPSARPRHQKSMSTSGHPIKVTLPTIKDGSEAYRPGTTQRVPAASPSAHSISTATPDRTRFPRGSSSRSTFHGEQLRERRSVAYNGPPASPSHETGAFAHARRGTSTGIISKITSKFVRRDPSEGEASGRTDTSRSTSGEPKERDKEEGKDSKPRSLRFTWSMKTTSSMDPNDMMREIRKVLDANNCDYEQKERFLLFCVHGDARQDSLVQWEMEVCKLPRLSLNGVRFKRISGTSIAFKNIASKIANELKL
Method in brief: as §1

MEK2 = target: T5, MEK2 (Homo sapiens, UniProt P36507)
T5 construct: gene MAP2K2
Method in brief: as §1

PRKCI = PRKCI (Homo sapiens, UniProt P41743)
Chain of PRKCI (P41743 whole entry): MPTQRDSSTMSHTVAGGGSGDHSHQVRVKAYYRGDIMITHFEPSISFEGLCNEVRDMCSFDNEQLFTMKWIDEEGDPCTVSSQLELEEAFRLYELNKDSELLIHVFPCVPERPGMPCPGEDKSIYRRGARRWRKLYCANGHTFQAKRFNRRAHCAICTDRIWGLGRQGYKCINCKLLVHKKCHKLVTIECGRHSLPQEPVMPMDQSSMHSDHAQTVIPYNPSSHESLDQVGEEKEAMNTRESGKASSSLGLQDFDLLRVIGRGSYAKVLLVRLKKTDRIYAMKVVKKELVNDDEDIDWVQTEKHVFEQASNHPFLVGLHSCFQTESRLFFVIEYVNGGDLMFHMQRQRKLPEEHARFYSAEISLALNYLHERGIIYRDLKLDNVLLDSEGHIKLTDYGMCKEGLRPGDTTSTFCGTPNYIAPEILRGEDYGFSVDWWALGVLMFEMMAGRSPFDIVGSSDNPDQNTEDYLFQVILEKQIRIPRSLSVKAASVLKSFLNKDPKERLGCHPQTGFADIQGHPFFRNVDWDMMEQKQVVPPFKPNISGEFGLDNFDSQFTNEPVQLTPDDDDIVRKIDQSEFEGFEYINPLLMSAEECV
Method in brief: as §1

[3] = target: T6, RPS6KA4(Kin.Dom.2-C-terminal) (Homo sapiens, UniProt O75676)
T6 construct: Kin.Dom.2-C-terminal
Method in brief: as §1

SRPK1 = SRPK1 (Homo sapiens, UniProt Q96SB4)
Chain of SRPK1 (Q96SB4 whole entry): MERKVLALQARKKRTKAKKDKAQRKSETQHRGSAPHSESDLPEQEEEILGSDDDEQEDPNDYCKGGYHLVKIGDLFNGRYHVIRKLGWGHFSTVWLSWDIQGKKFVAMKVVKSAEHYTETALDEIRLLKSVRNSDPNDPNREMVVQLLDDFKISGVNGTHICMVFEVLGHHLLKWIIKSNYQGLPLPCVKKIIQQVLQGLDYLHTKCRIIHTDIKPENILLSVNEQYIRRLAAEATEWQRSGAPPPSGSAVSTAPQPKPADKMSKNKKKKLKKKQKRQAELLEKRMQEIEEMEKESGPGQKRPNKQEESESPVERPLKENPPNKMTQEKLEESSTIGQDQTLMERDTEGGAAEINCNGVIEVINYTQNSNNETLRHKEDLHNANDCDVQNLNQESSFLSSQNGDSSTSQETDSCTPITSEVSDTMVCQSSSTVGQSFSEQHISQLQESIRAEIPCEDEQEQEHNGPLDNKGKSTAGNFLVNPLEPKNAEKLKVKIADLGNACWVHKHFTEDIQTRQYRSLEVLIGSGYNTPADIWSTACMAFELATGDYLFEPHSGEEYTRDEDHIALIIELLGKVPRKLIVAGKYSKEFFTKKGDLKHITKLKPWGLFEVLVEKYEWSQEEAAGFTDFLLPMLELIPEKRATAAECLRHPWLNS
Method in brief: as §1

TAOK2 = TAOK2 (Homo sapiens, UniProt Q9UL54)
Chain of TAOK2 (Q9UL54 whole entry): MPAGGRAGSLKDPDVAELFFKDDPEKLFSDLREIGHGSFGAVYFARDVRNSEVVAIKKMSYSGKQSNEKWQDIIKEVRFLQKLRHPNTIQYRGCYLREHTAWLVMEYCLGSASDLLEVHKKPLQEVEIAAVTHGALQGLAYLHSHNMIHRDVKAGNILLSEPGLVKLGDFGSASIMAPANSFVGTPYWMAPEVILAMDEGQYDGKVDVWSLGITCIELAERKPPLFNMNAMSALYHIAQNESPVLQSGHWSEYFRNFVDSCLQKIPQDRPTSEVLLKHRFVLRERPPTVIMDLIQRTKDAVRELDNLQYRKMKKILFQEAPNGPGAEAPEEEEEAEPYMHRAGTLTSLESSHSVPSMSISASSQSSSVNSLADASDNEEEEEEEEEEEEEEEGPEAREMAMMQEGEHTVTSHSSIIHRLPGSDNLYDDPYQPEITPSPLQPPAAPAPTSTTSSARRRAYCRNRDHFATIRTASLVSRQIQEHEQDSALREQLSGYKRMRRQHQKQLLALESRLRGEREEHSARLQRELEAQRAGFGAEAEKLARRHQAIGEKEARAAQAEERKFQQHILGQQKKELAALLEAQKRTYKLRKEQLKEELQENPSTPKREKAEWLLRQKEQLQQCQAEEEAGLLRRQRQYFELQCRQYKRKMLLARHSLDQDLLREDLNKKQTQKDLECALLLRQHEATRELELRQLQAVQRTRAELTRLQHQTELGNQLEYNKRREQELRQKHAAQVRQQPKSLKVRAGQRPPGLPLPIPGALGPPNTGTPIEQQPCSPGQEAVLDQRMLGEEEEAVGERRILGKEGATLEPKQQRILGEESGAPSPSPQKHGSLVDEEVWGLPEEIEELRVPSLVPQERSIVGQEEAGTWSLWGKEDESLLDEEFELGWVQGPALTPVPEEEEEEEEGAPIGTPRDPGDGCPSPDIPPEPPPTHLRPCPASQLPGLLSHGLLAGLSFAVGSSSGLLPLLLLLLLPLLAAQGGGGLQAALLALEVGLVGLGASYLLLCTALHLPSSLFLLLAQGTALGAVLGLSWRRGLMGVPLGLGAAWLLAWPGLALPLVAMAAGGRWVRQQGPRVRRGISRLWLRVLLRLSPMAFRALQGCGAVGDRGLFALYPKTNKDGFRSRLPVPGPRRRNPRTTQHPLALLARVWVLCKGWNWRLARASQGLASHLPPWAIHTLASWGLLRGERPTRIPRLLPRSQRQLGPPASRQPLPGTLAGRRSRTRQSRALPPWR
Method in brief: as §1

TLK1 = TLK1 (Homo sapiens, UniProt Q9UKI8)
Method in brief: as §1

remaining binding at 100 µM (AAK1): 77% | remaining binding at 100 µM [1]: 78% | remaining binding at 100 µM (ACVR1): 89% | remaining binding at 100 µM (BMPR1A): 92% | remaining binding at 100 µM (CDC2L1): 90% | remaining binding at 100 µM (CDK4): 71% | remaining binding at 100 µM (CDK7): 65% | remaining binding at 100 µM (EGFR(T790M)): 64% | remaining binding at 100 µM (EPHA2): 71% | remaining binding at 100 µM (FRK): 83% | remaining binding at 100 µM (HASPIN): 74% | remaining binding at 100 µM [2]: 78% | remaining binding at 100 µM (KIT(A829P)): 84% | remaining binding at 100 µM (LKB1): 50% | remaining binding at 100 µM (MARK1): 85% | remaining binding at 100 µM (MEK2): 86% | remaining binding at 100 µM (PRKCI): 72% | remaining binding at 100 µM [3]: 75% | remaining binding at 100 µM (SRPK1): 77% | remaining binding at 100 µM (TAOK2): 78% | remaining binding at 100 µM (TLK1): 59%
Structure (SMILES): C=C(C)[C@H]1CC=C(C)C(=O)C1 [S-carvone]
